Laboratory results: patent publication US20240317710A1, “CRYSTALLINE CSF-1R INHIBITOR ACIDIC SALT, PREPARATION METHOD THEREFOR AND USE THEREOF” (Abbisko Therapeutics Co. Ltd., priority 2021, published 2024)
Structures can show the parent of a compound that is named as a salt.

Columns and labels:
[1] = Solubility determination in deionized water; type: physicochemical; conditions: for Solubility S: ultrasonication, stepwise addition of water; for Dissolution result: visual observation
Description: About 2 mg of each of the various crystalline acidic salts and the compound of formula (I) in free form was precisely weighed out into a 2 mL glass vial, and about 100 μL of deionized water was added each time; the mixture was ultrasonicated, and if the compound was not dissolved, the step of adding deionized water and performing ultrasonication was repeated until the compound was completely dissolved or the concentration was <0.2 mg/mL. The total volume of the water added was recorded, the dissolution behavior and result were observed, and the solubility of each compound was calculated.

[2] = Hygroscopic behavior test by dynamic vapor sorption (DVS); type: physicochemical; conditions: for Hygroscopic weight gain %: 25° C., DVS
Source text: The experimental method of characterizing the crystalline acidic salts of the compound of formula (I) using dynamic vapor sorption (DVS) is as follows: a small amount of crystalline acidic salt powder of the compound of formula (I) was placed in a precision sample pan that came with the instrument; after the sample was loaded, the aluminum pan was sent into the instrument for analysis. In the present patent, the instruments used for dynamic vapor sorption were all the DVS Intrinsic model, the experimental parameter was set to using nitrogen as a carrier gas, the constant temperature was set to 25° C., the rate of mass percentage change over a unit of time (dm/dt)=0.01%/min was used as a criterion for determining if an equilibrium is reached, and the program humidity change cycle was set as follows: the initial relative humidity was 0%, the relative humidity was 90% at the end of the cycle, 2 cycles were set, and each 10% R.H. change was a step.
The inventors of the present invention measured the hygroscopic weight gains of each of the various crystalline forms in various relative humidity conditions (hygroscopic weight gain/pre-hygroscopic weight[…]) according to the dynamic vapor sorption method, and assessed the hygroscopicity of the different crystalline compounds.

SMILES | Solubility S [1] | Dissolution result [1] | hygroscopic weight gain [2] | Hygroscopic weight gain % ([2]; relative humidity 0.0 %) [%] | Hygroscopic weight gain % ([2]; relative humidity 10.0 %) [%] | Hygroscopic weight gain % ([2]; relative humidity 20.0 %) [%] | Hygroscopic weight gain % ([2]; relative humidity 30.0 %) [%] | Hygroscopic weight gain % ([2]; relative humidity 40.0 %) [%] | Hygroscopic weight gain % ([2]; relative humidity 50.0 %) [%] | Hygroscopic weight gain % ([2]; relative humidity 60.0 %) [%] | Hygroscopic weight gain % ([2]; relative humidity 70.0 %) [%] | Hygroscopic weight gain % ([2]; relative humidity 80.0 %) [%] | Hygroscopic weight gain % ([2]; relative humidity 90.0 %) [%]
Cc1nc(NC(=O)N2CCC(C)(C)C2=O)ccc1Oc1ccnc(-c2cnn(C)c2)c1 [Citrate crystalline form I, 3,3-dimethyl-N-(6-methyl-5-((2-(1-methyl-1H-pyrazol-4-yl)pyridin-4-yl)oxy)pyridin-2-yl)-2-oxopyrrolidine-1-carboxamide] | S > 20 mg/mL | Clear solution | – | – | – | – | – | – | – | – | – | – | –
Cc1nc(NC(=O)N2CCC(C)(C)C2=O)ccc1Oc1ccnc(-c2cnn(C)c2)c1 [Compound in free form, 3,3-dimethyl-N-(6-methyl-5-((2-(1-methyl-1H-pyrazol-4-yl)pyridin-4-yl)oxy)pyridin-2-yl)-2-oxopyrrolidine-1-carboxamide] | S < 1.5 mg/mL | Not clear | – | – | – | – | – | – | – | – | – | – | –
Cc1nc(NC(=O)N2CCC(C)(C)C2=O)ccc1Oc1ccnc(-c2cnn(C)c2)c1 [Fumarate crystalline form I, 3,3-dimethyl-N-(6-methyl-5-((2-(1-methyl-1H-pyrazol-4-yl)pyridin-4-yl)oxy)pyridin-2-yl)-2-oxopyrrolidine-1-carboxamide] | S > 20 mg/mL | Clear solution | – | – | – | – | – | – | – | – | – | – | –
Cc1nc(NC(=O)N2CCC(C)(C)C2=O)ccc1Oc1ccnc(-c2cnn(C)c2)c1 [Hydrochloride crystalline form I, 3,3-dimethyl-N-(6-methyl-5-((2-(1-methyl-1H-pyrazol-4-yl)pyridin-4-yl)oxy)pyridin-2-yl)-2-oxopyrrolidine-1-carboxamide] | S > 20 mg/mL | Clear solution | less than 10% | 0.00 | 0.13 | 0.24 | 0.34 | 0.42 | 0.52 | 0.63 | 0.81 | 1.37 | 19.40
Cc1nc(NC(=O)N2CCC(C)(C)C2=O)ccc1Oc1ccnc(-c2cnn(C)c2)c1 [Malate crystalline form I, 3,3-dimethyl-N-(6-methyl-5-((2-(1-methyl-1H-pyrazol-4-yl)pyridin-4-yl)oxy)pyridin-2-yl)-2-oxopyrrolidine-1-carboxamide] | S > 20 mg/mL | Clear solution | – | – | – | – | – | – | – | – | – | – | –
Cc1nc(NC(=O)N2CCC(C)(C)C2=O)ccc1Oc1ccnc(-c2cnn(C)c2)c1 [Methanesulfonate crystalline form II, 3,3-dimethyl-N-(6-methyl-5-((2-(1-methyl-1H-pyrazol-4-yl)pyridin-4-yl)oxy)pyridin-2-yl)-2-oxopyrrolidine-1-carboxamide] | S > 20 mg/mL | Clear solution | – | 0.00 | 0.11 | 0.18 | 0.20 | 0.24 | 0.31 | 0.88 | 8.93 | 12.44 | 23.15
Cc1nc(NC(=O)N2CCC(C)(C)C2=O)ccc1Oc1ccnc(-c2cnn(C)c2)c1 [Phosphate crystalline form I, 3,3-dimethyl-N-(6-methyl-5-((2-(1-methyl-1H-pyrazol-4-yl)pyridin-4-yl)oxy)pyridin-2-yl)-2-oxopyrrolidine-1-carboxamide] | S > 20 mg/mL | Clear solution | – | 0.02 | 1.19 | 1.86 | 2.32 | 2.78 | 3.37 | 3.97 | 4.66 | 5.46 | 6.383
Cc1nc(NC(=O)N2CCC(C)(C)C2=O)ccc1Oc1ccnc(-c2cnn(C)c2)c1 [Sulfate crystalline form I, 3,3-dimethyl-N-(6-methyl-5-((2-(1-methyl-1H-pyrazol-4-yl)pyridin-4-yl)oxy)pyridin-2-yl)-2-oxopyrrolidine-1-carboxamide] | S > 20 mg/mL | Clear solution | – | – | – | – | – | – | – | – | – | – | –
Cc1nc(NC(=O)N2CCC(C)(C)C2=O)ccc1Oc1ccnc(-c2cnn(C)c2)c1 [Tartrate crystalline form I, 3,3-dimethyl-N-(6-methyl-5-((2-(1-methyl-1H-pyrazol-4-yl)pyridin-4-yl)oxy)pyridin-2-yl)-2-oxopyrrolidine-1-carboxamide] | S > 20 mg/mL | Clear solution | – | 0.00 | 0.83 | 1.79 | 2.42 | 2.88 | 3.32 | 3.77 | 4.44 | 5.17 | 10.61
